Measurements as given in US10322138B2, “Treatment of depressive disorders” (Pherin Pharmaceuticals, Inc., priority 2012, dated 2019).
Read-outs that look alike come from different tables or passages of the source.

Assays:
[1] = tested on: individuals diagnosed with MDD and insomnia; conditions: cited from earlier work
[2] = tested on: isolated human nasal chemosensory neurons; assay: Electrophysiology: inward currents in isolated nasal chemosensory neurons; assay type: cell-based
[3] = tested on: nasal septal chemosensory epithelium; assay: Electrophysiology: electrotonic depolarization of chemosensory epithelium; assay type: cell-based, human
estrogen receptors = assay: In vitro agonist/antagonist activity on steroid receptors
androgen receptors = androgen receptors (Homo sapiens, UniProt P10275); assay: as above
progestin receptors = progestin receptors (Homo sapiens, UniProt P06401); assay: as above
glucocorticoid receptors = glucocorticoid receptors (Homo sapiens, UniProt P04150); assay: as above
[4] = tested on: receptors of indoleamine, monoamines, ion channels, receptors, peptides, opioid, glutamate neurotransmitter, steroid hormones, or glucocorticoid receptors; assay: In vitro receptor affinity panel; assay type: binding
[5] = Ames reverse mutation assay
bone marrow = assay: In vivo bone marrow micronucleus test
pregnant rats = assay: Reproductive toxicity study; assay type: in vivo, rat; conditions: intravenous doses up to 2.5 mg/Kg/day during organogenesis
pregnant rabbits = assay: Reproductive toxicity study; assay type: in vivo, rabbit; conditions: intravenous doses up to 2.5 mg/Kg/day during organogenesis
[6] = assay type: in vivo; conditions: rat, repeated intranasal doses at 10 mg/Kg
mice of both sexes = assay: Intraperitoneal toxicity, 7-day observation; assay type: in vivo; conditions: intraperitoneal up to 200 mg/Kg
rats of both sexes = assay type: in vivo; conditions: intravenous 1 mg/Kg
mice = assay: Intranasal and intravenous toxicity up to 2.5 mg/Kg; assay type: in vivo, mouse; conditions: intranasal and intravenous up to 2.5 mg/Kg
rats [7] = assay: as above; assay type: in vivo, rat; conditions: intranasal and intravenous up to 2.5 mg/Kg
rabbits = assay: as above; assay type: in vivo, rabbit; conditions: intranasal and intravenous up to 2.5 mg/Kg
dogs [8] = assay: as above; assay type: in vivo, dog; conditions: intranasal and intravenous up to 2.5 mg/Kg
rats [9] = assay: One-month intranasal toxicity; assay type: in vivo, rat; conditions: intranasal up to 50 μg/day for one month
dogs [10] = assay: 28-day intranasal toxicity; assay type: in vivo, dog; conditions: intranasal up to 300 μg/day for 28 days
[11] = tested on: healthy volunteers of both sexes; assay: Pilot trials, nasal administration; assay type: in vivo, human
healthy individuals = assay: Phase 1 open-label, flexible dose-escalation trial; assay type: in vivo, human
Experimental: In a Phase 1 open-label, flexible dose-escalation trial, the pregn-4-en-20-yn-3-one was formulated as an aqueous solution at 8 μg/mL, with 2% propylene glycol and 2% ethanol, and was administered with a Valois intranasal metered spray pump delivering 50 μL, so that the pregn-4-en-20-yn-3-one was administered at 400 ng/spray. The low-dose group received 400, 400, 1600, 1600, 2800, and 2800 ng/day over the six-day period of the trial, while the high-dose group received 4000, 4000, 5200, 5200, 6400, and 6400 ng/day over the six-day period of the trial. The trial enrolled 10 individuals, 7 male and 3 female, between 21 and 38 years old, healthy, free of any Axis I diagnosis according to the DSM-IV-TR, and not taking any central nervous system medications.

[12] = tested on: individuals meeting the diagnostic criteria for MDD; assay: Phase 2 three-arm, double-blind, randomized trial in MDD; assay type: in vivo, human; conditions: for decrease in average HRSD-17 score from baseline (standard deviation): eight weeks of treatment; for Cohen's d relative to placebo, HRSD-17 item 4 / Cohen's d relative to placebo, HRSD-17 score / decrease in HRSD-17 item 4 (initial insomnia) from baseline: eight weeks
Experimental: In a Phase 2 three-arm, double-blind, randomized trial, individuals received either placebo (a nasal solution containing no pregn-4-en-20-yn-3-one), 3200 ng/day of pregn-4-en-20-yn-3-one (“low dose”), or 6400 ng/day of pregn-4-en-20-yn-3-one (“high dose”), formulated and administered as in the Phase 1 trial. The placebo group and the low dose group administered two sprays per nostril twice/day, the high dose group administered two sprays per nostril four times/day. The trial enrolled 30 individuals, male and female between 18 and 60 years old, meeting the diagnostic criteria for MDD and free of any other Axis I diagnosis according to the DSM-IV-TR, non-suicidal, and not taking any central nervous system medications (including natural products such as St. John's wort). The individuals were required to have a minimum score on the Hamilton Rating Scale for Depression (HRSD-17), a 17-item scale designed for completion by a health professional following a structured interview with the individual, of at least 17, meaning that they were at least moderately depressed; and the primary efficacy criterion in the trial was reduction in HRSD-17 score from baseline.
The trial included ten weekly visits. At the first (screening) visit, the individuals were assessed for depression symptoms and randomized into treatment groups. […] At the second (baseline) visit, they were assessed, trained in self-administration of the nasal spray, and began self-administration of their trial medication. There were seven visits at which they were assessed while on treatment with their trial medication; and one follow-up visit one week after the end of medication administration at which they were given final assessments.
[Cohen's d is the mean difference between groups divided by the pooled standard deviation. For behavioral measures, a Cohen's d of 0.2 represents a small treatment effect; 0.5, a medium treatment effect; and 0.8, a large treatment effect.] […] HRSD-17 item 4 measures initial insomnia (difficulty in falling asleep early in the night), and is scored 0, for no difficulty falling asleep; 1, for complaints of occasional difficulty falling asleep, i.e. more than ½ hour; and 2, complaints of nightly difficulty falling asleep.

[13] = escitalopram plus cognitive behavioral therapy for insomnia
[14] = escitalopram plus control quasi-desensitization therapy
[15] = Phase 1, intranasal 400-6400 ng/day over six days

Sequence of progestin receptors (P06401 whole entry): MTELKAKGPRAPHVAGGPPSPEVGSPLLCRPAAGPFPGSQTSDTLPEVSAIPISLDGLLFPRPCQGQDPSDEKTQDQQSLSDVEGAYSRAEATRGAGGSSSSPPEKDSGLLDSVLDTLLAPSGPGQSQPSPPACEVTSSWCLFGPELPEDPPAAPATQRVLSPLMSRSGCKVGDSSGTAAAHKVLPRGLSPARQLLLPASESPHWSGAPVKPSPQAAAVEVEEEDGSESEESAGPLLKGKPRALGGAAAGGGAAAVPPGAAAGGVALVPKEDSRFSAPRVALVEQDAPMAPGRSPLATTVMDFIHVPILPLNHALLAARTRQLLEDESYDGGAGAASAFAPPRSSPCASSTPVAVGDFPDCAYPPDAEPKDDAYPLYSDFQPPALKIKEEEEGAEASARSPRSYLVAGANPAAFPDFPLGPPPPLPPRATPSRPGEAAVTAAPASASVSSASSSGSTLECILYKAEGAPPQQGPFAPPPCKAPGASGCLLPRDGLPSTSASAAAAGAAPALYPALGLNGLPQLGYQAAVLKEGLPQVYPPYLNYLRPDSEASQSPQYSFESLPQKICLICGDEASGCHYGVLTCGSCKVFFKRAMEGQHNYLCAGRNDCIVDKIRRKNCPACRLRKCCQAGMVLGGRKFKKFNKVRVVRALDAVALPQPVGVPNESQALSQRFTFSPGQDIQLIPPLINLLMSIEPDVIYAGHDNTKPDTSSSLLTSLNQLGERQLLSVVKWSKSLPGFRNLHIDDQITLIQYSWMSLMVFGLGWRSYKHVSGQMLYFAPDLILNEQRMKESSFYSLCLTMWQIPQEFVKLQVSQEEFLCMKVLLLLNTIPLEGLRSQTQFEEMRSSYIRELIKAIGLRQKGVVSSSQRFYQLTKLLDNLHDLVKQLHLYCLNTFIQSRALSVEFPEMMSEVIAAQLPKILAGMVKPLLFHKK
Sequence of glucocorticoid receptors (P04150 whole entry): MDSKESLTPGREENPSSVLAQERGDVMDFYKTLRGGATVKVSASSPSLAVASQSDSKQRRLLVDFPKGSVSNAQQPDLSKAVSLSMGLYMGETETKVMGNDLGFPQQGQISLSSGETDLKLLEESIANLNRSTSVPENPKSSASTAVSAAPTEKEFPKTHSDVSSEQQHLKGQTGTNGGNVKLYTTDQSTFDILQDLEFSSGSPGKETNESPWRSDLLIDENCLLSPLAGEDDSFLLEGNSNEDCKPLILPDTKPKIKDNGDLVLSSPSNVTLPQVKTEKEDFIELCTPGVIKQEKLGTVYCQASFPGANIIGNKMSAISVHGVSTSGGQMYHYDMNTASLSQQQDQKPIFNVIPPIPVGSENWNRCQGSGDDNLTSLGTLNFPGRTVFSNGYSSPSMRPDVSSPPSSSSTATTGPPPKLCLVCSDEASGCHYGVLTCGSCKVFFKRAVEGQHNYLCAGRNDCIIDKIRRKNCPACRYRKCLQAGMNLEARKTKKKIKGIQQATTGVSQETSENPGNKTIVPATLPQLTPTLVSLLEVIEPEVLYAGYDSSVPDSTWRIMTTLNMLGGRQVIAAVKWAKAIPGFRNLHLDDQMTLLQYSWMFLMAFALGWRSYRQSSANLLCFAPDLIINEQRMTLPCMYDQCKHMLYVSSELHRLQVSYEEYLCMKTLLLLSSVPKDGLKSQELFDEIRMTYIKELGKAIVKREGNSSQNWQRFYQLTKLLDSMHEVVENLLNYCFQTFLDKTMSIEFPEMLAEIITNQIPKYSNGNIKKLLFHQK
Sequence of androgen receptors (P10275 whole entry): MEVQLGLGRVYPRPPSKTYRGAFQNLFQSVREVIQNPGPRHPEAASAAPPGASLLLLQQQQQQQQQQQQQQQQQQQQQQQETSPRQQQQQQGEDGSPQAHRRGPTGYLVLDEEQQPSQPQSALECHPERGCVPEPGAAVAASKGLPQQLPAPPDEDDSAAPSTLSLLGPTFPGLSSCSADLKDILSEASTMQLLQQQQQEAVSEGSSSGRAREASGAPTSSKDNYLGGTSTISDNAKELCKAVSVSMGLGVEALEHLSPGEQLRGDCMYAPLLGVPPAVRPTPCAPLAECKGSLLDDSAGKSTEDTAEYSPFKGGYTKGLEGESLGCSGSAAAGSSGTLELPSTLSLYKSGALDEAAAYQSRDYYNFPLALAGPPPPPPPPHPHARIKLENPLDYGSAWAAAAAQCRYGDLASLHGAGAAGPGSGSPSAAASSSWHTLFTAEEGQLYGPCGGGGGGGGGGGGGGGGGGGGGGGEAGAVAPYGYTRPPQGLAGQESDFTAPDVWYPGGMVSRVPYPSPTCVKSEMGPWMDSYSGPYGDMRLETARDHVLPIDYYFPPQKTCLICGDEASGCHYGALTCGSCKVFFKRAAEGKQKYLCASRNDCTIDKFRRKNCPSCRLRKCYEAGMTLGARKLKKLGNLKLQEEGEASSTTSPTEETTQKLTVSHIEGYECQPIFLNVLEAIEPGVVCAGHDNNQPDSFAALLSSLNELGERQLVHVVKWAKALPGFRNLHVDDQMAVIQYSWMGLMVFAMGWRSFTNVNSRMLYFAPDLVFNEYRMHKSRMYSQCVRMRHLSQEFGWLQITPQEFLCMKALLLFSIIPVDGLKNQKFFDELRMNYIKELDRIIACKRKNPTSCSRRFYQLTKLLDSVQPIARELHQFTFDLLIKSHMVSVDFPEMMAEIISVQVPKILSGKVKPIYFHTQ

SMILES: CN(C)CCC[C@@]1(c2ccc(F)cc2)OCc2cc(C#N)ccc21 [escitalopram]
- rate of remission of the depression [1, 13]: 61.5%
- remission of insomnia [1, 13]: 50.0%
- rate of remission of the depression [1, 14]: 33.3%
- remission of insomnia [1, 14]: 7.7%

SMILES: C#C[C@H]1CC[C@H]2[C@@H]3CCC4=CC(=O)CC[C@]4(C)[C@H]3CC[C@]12C [pregn-4-en-20-yn-3-one, Pregn-4-en-20-yn-3-one]
- inward currents in isolated human nasal chemosensory neurons [2]: induced inward currents
- concentration of maximal response (amplitude) ([2]; amplitude increased depending on concentration): 10^−7 to 10^−5 M
- electrotonic depolarization of the nasal septal chemosensory epithelium [3]: electrotonic depolarization
- agonist or antagonist activity (estrogen receptors): no agonist or antagonist activity
- agonist or antagonist activity (androgen receptors): no agonist or antagonist activity
- agonist or antagonist activity (progestin receptors): no agonist or antagonist activity
- agonist or antagonist activity (glucocorticoid receptors): no agonist or antagonist activity
- affinity for receptors [4]: nor was there any affinity
- mutagenic or clastogenic potential [5]: no evidence of mutagenic or clastogenic potential
- mutagenic or clastogenic potential (bone marrow): no evidence of mutagenic or clastogenic potential
- adverse effects on maternal or litter parameters (pregnant rats): no adverse effects on maternal or litter parameters
- adverse effects on maternal or litter parameters (pregnant rabbits): no adverse effects on maternal or litter parameters
- systemic exposure [6]: very low systemic exposure (below the limit of accurate quantitation)
- macroscopic or microscopic changes in organs (mice of both sexes): no macroscopic or microscopic changes
- mortality or adverse symptoms (mice of both sexes; 7-day period): no mortality or adverse symptoms
- pathological changes (rats of both sexes): no pathological changes
- changes in behavior (rats of both sexes; 8-day period): no changes in behavior
- deaths, adverse clinical signs, physiological changes, clinical laboratory parameters (mice): no deaths or adverse clinical signs, no physiological changes, or changes in clinical laboratory parameters
- deaths, adverse clinical signs, physiological changes, clinical laboratory parameters (rats [7]): no deaths or adverse clinical signs, no physiological changes, or changes in clinical laboratory parameters
- deaths, adverse clinical signs, physiological changes, clinical laboratory parameters (rabbits): no deaths or adverse clinical signs, no physiological changes, or changes in clinical laboratory parameters
- deaths, adverse clinical signs, physiological changes, clinical laboratory parameters (dogs [8]): no deaths or adverse clinical signs, no physiological changes, or changes in clinical laboratory parameters
- deaths, adverse clinical signs, laboratory or pathology parameters (rats [9]): no deaths or adverse clinical signs or effects on laboratory or pathology parameters
- deaths, adverse clinical signs, laboratory or pathology parameters (dogs [10]): no deaths or adverse clinical signs or effects on the laboratory or pathology parameters
- change in heart rate ([11]; intranasal): did not produce statistically significant change
- change in respiratory rate ([11]; intranasal): did not produce statistically significant change
- duration of the QTC intervals of the electrocardiogram ([11]; intranasal): did not change
- effect on alpha and beta frequency bands of electroencephalogram ([11]; intranasal): did not have significant effect
- effect on body temperature ([11]; intranasal): did not have significant effect
- frequency of electrodermal activity events (skin conductance) ([11]; intranasal): did significantly increase
- tolerability ([11]; nasal administration): well tolerated
- differences in clinical laboratory values, neuropsychological functioning, brain activity between doses or visits (healthy individuals; Phase 1): No statistically significant differences
- differences in safety parameters between the three doses of each treatment group (healthy individuals; Phase 1): no statistically significant differences
- most frequent adverse events (healthy individuals; [15]): increased appetite, and dizziness in the high dose group
- serious adverse events (healthy individuals; [15]): no serious adverse events
- serious adverse events ([12]; Phase 2, any of the groups): no serious adverse events reported
- decrease in average HRSD-17 score from baseline (standard deviation) ([12]; high dose 6400 ng/day intranasal): 18.6 (8.7)
- Cohen's d relative to placebo, HRSD-17 item 4 ([12]; high dose 6400 ng/day): 1.60
- Cohen's d relative to placebo, HRSD-17 score ([12]; high dose 6400 ng/day): 0.82
- decrease in HRSD-17 item 4 (initial insomnia) from baseline ([12]; high dose 6400 ng/day): 1.4 (0.25)
- decrease in average HRSD-17 score from baseline (standard deviation) ([12]; low dose 3200 ng/day intranasal): 18.3 (7.7)
- Cohen's d relative to placebo, HRSD-17 item 4 ([12]; low dose 3200 ng/day): 0.39
- Cohen's d relative to placebo, HRSD-17 score ([12]; low dose 3200 ng/day): 0.86
- decrease in HRSD-17 item 4 (initial insomnia) from baseline ([12]; low dose 3200 ng/day): 0.6 (0.3)
- time to effect on a depressive disorder or its symptoms ([12]; nasal administration): ≤ 1 week
